One test addresses Large T antigen (Simian virus 40, UniProt P03070). Type of test: functional, Betapolyomavirus macacae.
Test [1] in a line: HEp-2 cell cytotoxicity, dose response, cytotoxicity control for RSV inhibitor project, HTS (AID 2410). Type of test: functional. The note with it: human respiratory syncytial virus.
The next test has as its system P388/ADR. Briefly: cells. Type of test: functional. The note with it: Mus musculus.
A further test concerns SN12K1. Briefly: cells. Format: functional. The note with it: Homo sapiens.
The next test deals with P388. Briefly: cells. The note with it: Mus musculus. Type of test: functional.
A short description of test [2]: Luminescence Cell-Based Dose Retest to Confirm Inhibitors of Cancer Stem Cells. [Related pubchem assays (depositor defined):AID2717, AID2721]. The note with it: Homo sapiens. Format: functional.
Test [3] has as its target T1, Rac GTPase-activating protein 1 (Homo sapiens, UniProt Q9H0H5).
T1 sequence (Q9H0H5 whole entry): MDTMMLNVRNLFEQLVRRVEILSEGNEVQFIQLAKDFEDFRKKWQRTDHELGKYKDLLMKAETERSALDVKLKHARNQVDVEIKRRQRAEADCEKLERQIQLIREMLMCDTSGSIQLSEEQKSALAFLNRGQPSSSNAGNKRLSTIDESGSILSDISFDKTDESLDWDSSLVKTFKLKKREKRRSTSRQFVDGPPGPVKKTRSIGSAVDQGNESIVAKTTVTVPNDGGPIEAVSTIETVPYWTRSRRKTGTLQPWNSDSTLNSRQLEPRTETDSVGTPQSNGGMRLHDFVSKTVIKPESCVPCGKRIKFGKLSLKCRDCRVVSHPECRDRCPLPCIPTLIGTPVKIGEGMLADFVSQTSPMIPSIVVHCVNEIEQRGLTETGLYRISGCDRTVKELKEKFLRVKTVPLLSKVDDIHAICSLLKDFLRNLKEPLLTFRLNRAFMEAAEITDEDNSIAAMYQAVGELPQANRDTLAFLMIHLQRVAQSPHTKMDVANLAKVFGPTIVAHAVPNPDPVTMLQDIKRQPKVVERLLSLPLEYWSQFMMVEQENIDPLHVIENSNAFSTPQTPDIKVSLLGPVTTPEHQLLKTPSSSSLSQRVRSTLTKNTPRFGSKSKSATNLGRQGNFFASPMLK
Briefly: MgcRacGAP GTPase-activating activity inhibitors, confirmation, biochemical, ADP Hunter fluorescence, primary and confirmatory (AID 624330). Format: functional.

A short description of a further test: cells. Type of test: functional.
In the next test the test system is INS1. Briefly: beta cell apoptosis inhibitors, cytokine rescue, dose response, luminescence, retest (AID 449756).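 Note: cell death triggered by IL-1 beta plus TNF-alpha plus IFN-gamma mixture; protective hits raise ATP signal compared with cytokine alone wells.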 Type of test: functional, cell-based. The settings on record: Rattus norvegicus.
The next test has as its target T2, Cytochrome P450 1A2 (Homo sapiens, UniProt P05177).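 Note: PubChem cytochrome P450 panel assay, CYP1A2 panel member.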
T2 sequence (P05177 whole entry): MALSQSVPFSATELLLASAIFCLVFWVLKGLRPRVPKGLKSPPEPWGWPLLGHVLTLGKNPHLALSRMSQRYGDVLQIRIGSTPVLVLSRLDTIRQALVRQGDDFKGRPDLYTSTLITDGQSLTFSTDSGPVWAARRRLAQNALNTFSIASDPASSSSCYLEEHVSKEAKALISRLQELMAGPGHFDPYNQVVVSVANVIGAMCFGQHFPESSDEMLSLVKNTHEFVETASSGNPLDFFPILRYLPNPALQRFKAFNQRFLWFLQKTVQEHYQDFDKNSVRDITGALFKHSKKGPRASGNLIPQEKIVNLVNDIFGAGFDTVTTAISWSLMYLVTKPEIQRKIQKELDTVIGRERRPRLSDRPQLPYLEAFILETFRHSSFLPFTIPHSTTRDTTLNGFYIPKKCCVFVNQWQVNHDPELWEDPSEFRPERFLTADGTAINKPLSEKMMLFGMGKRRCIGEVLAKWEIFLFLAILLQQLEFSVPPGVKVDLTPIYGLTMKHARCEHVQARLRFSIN

The source made the active and inactive calls.

Sequence of Large T antigen (P03070 whole entry): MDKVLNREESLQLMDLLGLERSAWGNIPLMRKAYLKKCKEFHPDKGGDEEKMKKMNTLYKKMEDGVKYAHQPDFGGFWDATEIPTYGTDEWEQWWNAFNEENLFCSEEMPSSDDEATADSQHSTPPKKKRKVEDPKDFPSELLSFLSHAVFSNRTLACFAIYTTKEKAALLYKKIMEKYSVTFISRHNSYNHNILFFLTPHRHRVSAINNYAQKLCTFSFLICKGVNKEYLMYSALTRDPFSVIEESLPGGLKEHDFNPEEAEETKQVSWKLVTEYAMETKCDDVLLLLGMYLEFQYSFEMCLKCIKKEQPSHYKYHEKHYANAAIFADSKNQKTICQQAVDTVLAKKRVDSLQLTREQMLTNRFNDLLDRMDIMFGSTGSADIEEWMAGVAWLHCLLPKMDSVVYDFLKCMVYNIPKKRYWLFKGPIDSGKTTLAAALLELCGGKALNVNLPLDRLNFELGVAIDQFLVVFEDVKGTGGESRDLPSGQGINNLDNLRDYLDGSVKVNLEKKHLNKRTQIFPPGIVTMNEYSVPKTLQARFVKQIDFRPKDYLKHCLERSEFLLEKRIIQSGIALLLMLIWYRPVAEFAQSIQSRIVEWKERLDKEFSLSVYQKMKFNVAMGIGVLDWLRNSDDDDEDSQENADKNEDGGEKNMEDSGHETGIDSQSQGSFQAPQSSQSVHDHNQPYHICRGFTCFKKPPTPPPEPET

Take `CN(C)c1ccc(NC(=O)CN2CCC(C(=O)c3ccc(F)cc3)CC2)cc1`: the IC50 – broadly, the concentration that gives 50% inhibition – on Large T antigen was 10.4 µM (active).

Take `CN=C(S)NNC(=O)COc1cccc(C)c1C`: in [1], the CC50 (usually the concentration giving 50% cytotoxicity) is 48.9 µM (active).

With `Nc1ccc2[nH]c3c(-c4ccccc4)nccc3c2c1`, the figures for the GI50 with P388/ADR, in the test with SN12K1 and in the test with P388 were 19.9 µM (inactive), 22.3 µM (inactive) and 6.21 µM (inactive), respectively.

In the case of `Nc1ncnc2c1ncn2[C@@H]1O[C@H](COP(=O)(O)O)[C@@H](O)[C@@H]1O`, the GI50 (commonly the concentration giving 50% growth inhibition) was > 16.1 µM (inactive) in the test with P388/ADR, > 50 µM (inactive) with SN12K1 and > 7.93 µM (inactive) in the test on P388.

For `CCc1ccc(NC(=O)c2cc3c(C)nc4ccccc4c3o2)cc1`, the CC50 in [1] was 39.6 µM (active). Also, in test [2], the AC50 – broadly, the concentration giving half of the maximal activity seen – was 6.51 µM (active).

For the compound `C/C(N)=C(/C#N)C(=O)COC(=O)c1cc(-c2cccc3ccccc23)nc2ccccc12`, in test [1], the CC50 was 7.25 µM (active).

With `Cc1c2ccnc(-c3ccccc3)c2cc2c1[nH]c1ccccc12`, the GI50 with P388/ADR was 2.63 µM (inactive); in the test on SN12K1, 1.39 µM (inactive); in the test on P388, 2.9 µM (inactive).

Consider `[N-]=[N+]=CC(=O)OCC(N)C(=O)O` (configuration not stated), for which the GI50 was 0.352 µM (active) in the test on P388/ADR, 0.206 µM (active) in the test with SN12K1 and 0.156 µM (active) in the test on P388.

Regarding `CC(=O)N1CCN(CC(O)COc2ccc(Br)cc2)CC1` (configuration not stated), the IC50 in test [3] is 159 µM (active).

On to `CCOC(=O)c1c(-c2ccccc2)csc1NC(=O)C(C)NCCCN1CCOCC1` (configuration not stated), for which, in [3], the IC50 was 86.1 µM (active).

As to `CN(C(=O)c1ccccc1C(=O)OCC(=O)NCc1cccs1)C1CCCCC1`, the IC50 at Large T antigen was > 100 µM (active).

As to `Cc1csc(N/N=C/c2ccccn2)n1`, the AC50 in [2] is 11.2 µM (active).

For the compound `O=C(OCc1cccc(F)c1)c1ccc2c(=O)n3c(nc2c1)CCC3`, the half-inhibitory concentration (IC50) in the test “cells” is 12.1 µM (active).

On to `CCCCC(C)C1CCC2(C)C=CC(=O)C(C)=C2C1O` (configuration not stated), for which the GI50 in the test on P388/ADR, with SN12K1 and with P388 was > 100 µM (inactive) throughout.

For `COc1cc(OC)cc(-c2c(-c3cccs3)c3cc(-c4cc[nH]n4)ccc3n2C)c1`, the half-maximal cytotoxic concentration (CC50) in test [1] is 11.9 µM (active).

For the compound `COc1ccc2[nH]c3ccc4cc[n+](CCN5CCC(C6CCN(CC[n+]7ccc8ccc9[nH]c%10ccc(OC)cc%10c9c8c7)CC6)CC5)cc4c3c2c1`, the GI50 in the test on P388/ADR is 1.84 µM (inactive); with SN12K1, 0.417 µM (active); in the test with P388, 0.546 µM (active).

For `COC(=O)c1cc(NC(S)=NCc2ccc(Cl)cc2)cc(C(=O)OC)c1`, in test [1], the CC50 was 26.3 µM (active).

Consider `CCOc1cc(/C=N/n2cnnc2)ccc1O`, for which the results for the IC50 (on Large T antigen; in test [3]) were 13.6 µM (active) and 34.3 µM (active), respectively.

With `Cc1ccc(S(=O)(=O)N2CCOCC2)cc1NC(=O)CN1CCN(c2ccc(O)cc2)CC1`, the IC50 on Large T antigen was 5.03 µM (active).

In the case of `COc1cccc(OC)c1NC(=O)CN1CCN(C)CC1`, the IC50 in test [3] was 100 µM (active).

With `O=NN(CCCl)C(=O)NC1CCSc2ccccc21` (configuration not stated), the GI50 in the test on P388/ADR was 27.9 µM (inactive); with SN12K1 it was > 100 µM (inactive); with P388, 21.1 µM (inactive).

Consider `C[C@@H]1O[C@@H](O[C@H]2CC[C@]3(C=O)[C@H]4CC[C@]5(C)[C@@H](c6ccc(=O)oc6)CC[C@]5(O)[C@@H]4CC[C@]3(O)C2)[C@H](O)[C@H](O)[C@H]1O[C@@H]1O[C@H](CO)[C@@H](O)[C@H](O)[C@H]1O` [HELLEBRIN], for which the GI50 was 113 µM (inactive) with P388/ADR, 0.0375 µM (active) in the test with SN12K1 and 64.7 µM (inactive) in the test with P388.

Take `CCCCOc1ccc(NC(=O)CN2CCN(CC)CC2)cc1`: in test [3], the IC50 was 71.7 µM (active).

With `CS(=O)(=O)Cc1nc2ccccc2oc1=O`, the figures for the IC50 (in the test “cells”; in test [3]) were 2.93 µM (active) and 73.6 µM (active), respectively.

In the case of `Cc1nc(-c2ccccc2)sc1C(=O)/C=C/c1ccc(Cl)cc1`, the AC50 in test [2] is 4.89 µM (active).

On to `Cc1ccc2c[nH]nc2c1N`, for which the 50% inhibitory concentration (IC50) at Large T antigen is 15.4 µM (active).

Regarding `N/C(S)=N/c1c(Cl)cccc1Cl`, the half-inhibitory concentration (IC50) at Large T antigen is 77.4 µM (active).

With `Cc1ccc(/N=N/c2c(C)[nH]n(C(N)=S)c2=O)cc1`, the half-inhibitory concentration (IC50) in “cells” was 5.24 µM (active).

Consider `CCOC(=O)c1ccc(N[C@@H]2c3cc4c(cc3C(c3cc(OC)c(O)c(OC)c3)[C@H]3C(=O)OCC32)OCO4)cc1O` (some centres not stated), for which the GI50 in the test with P388/ADR is 0.227 µM (active); in the test with SN12K1, 0.0887 µM (active); in the test on P388 it was < 0.01 µM (active).

Take `CC(=O)OCC1OC(n2cc(F)c(=O)[nH]c2=O)C(NC(=O)OCc2ccccc2)C(OC(C)=O)C1OC(C)=O` (configuration not stated): the GI50 in the test on P388/ADR, in the test on SN12K1 and with P388 was > 100 µM (inactive) each time.

As for `CCOc1ccc(CN2CCN(Cc3c[nH]c4ccccc34)CC2)cc1`, in the test with INS1, the AC50 is 7.24 µM (active). Besides, the IC50 in test [3] is 93 µM (active).

`COc1cc(C=C2C(=O)NC(=O)NC2=O)ccc1OCc1ccc([N+](=O)[O-])cc1`: in test [3], the IC50 is 158 µM (active).

For `COc1ccc(NC2CCCN(C(=O)c3ccc(OC)o3)C2)cc1` (configuration not stated), the IC50 on Large T antigen was 16.7 µM (active).

Regarding `C=C1C(=O)C[C@@]23CCC[C@@]12CC(O)C3` (some centres not stated), the values for the GI50 in the test with P388/ADR, with SN12K1 and in the test on P388 were 5.15 µM (inactive), 17 µM (inactive) and 3.61 µM (inactive), respectively.

Regarding `CCCCn1nnnc1SCC(=O)Nc1ccc(N(C)C)cc1`, the IC50 on Large T antigen is 11.2 µM (active).

Take `C/C(=C\c1ccc(C(=O)O)cc1)c1ccc2c(c1)C(C)(C)CCC2(C)C`: the AC50 in test [2] is 3.1 µM (active); on Cytochrome P450 1A2, 31.6 µM (inconclusive).

Take `C=CCN(C(=O)Cn1nc(C)n2c(cc3cc(C)ccc32)c1=O)c1ccccc1`: the CC50 in [1] was > 50 µM (active).

In the case of `CC1C(O)C2(Oc3cc4c(c5c3[C@@H](CC5O)[C@H]2C)CCC2Cc3nc5c(nc3C[C@@]42C)CC2CCC3C4=C[C@H]6O[C@@]7(O[C@@](C)(CO)C[C@@H]7O)C(C)[C@@]6(O)[C@]4(C)[C@@H](O)CC3[C@]2(C)C5)OC1(C)C` (some centres not stated), the GI50 in the test on P388/ADR was 0.52 µM (active); in the test with SN12K1, 0.0278 µM (active); in the test with P388, 0.0278 µM (active).

In the case of `COc1cccc2c1C(=O)c1c(O)c3c(c(O)c1C2=O)C[C@@](O)(/C(C)=N/NC(=O)c1ccccc1)C[C@@H]3OC1CC(N)C(O)C(C)O1` (some centres not stated), the GI50 in the test on P388/ADR was 5.61 µM (inactive); with SN12K1 it was 0.0586 µM (active); in the test on P388, 0.132 µM (active).

As to `CCCCOC(=O)Cn1c(-c2ccccc2)nc2ccccc2c1=O`, the IC50 in the test “cells” was 12.7 µM (active).

With `N#CC1=C(N)Oc2cc(O)c(/C=N/c3ccccc3)cc2C1c1ccccc1` (configuration not stated), the CC50 in test [1] was 9.1 µM (active).
